In the supplement of paper PMC13380429:

Legend:
Conditions in all cases: 72 h
[1] = system: Caco-2; assay: cell viability relative to DMSO; higher = less toxic
[2] = system: Calu-3; assay: as above
[3] = system: HepG2; assay: as above
[4] = system: U2OS; assay: as above
[5] = system: Vero E6; assay: as above
[6] = system: Calu-3; assay: relative viability EC50 (midpoint between 100% and the lowest measured viability); higher = less toxic
[7] = system: HepG2; assay: as above
[8] = system: U2OS; assay: as above
[9] = system: Vero E6; assay: as above
[10] = system: Caco-2; assay: drug sensitivity score (DSS) for viability; higher = more toxic; extreme values may be limits of the assay
[11] = system: Calu-3; assay: as above
[12] = system: HepG2; assay: as above
[13] = system: U2OS; assay: as above
[14] = system: Vero E6; assay: as above
[15] = system: Caco-2; assay: relative viability EC50 (midpoint between 100% and the lowest measured viability); higher = less toxic

SMILES: O=C1CCc2ccc(OCCCCN3CCN(c4cccc(Cl)c4Cl)CC3)cc2N1 [aripiprazole]
- cell viability ([1]; 1 nM): 112%
- cell viability ([1]; 10 nM): 78%
- cell viability ([1]; 100 nM): 94.6%
- cell viability ([1]; 1000 nM): 90.5%
- cell viability ([1]; 10000 nM): 70.8%
- cell viability ([2]; 1 nM): 98.5%
- cell viability ([2]; 10 nM): 98.5%
- cell viability ([2]; 100 nM): 104%
- cell viability ([2]; 1000 nM): 91.9%
- cell viability ([2]; 10000 nM): 83.3%
- cell viability ([3]; 1 nM): 109%
- cell viability ([3]; 10 nM): 105%
- cell viability ([3]; 100 nM): 98.6%
- cell viability ([3]; 1000 nM): 100%
- cell viability ([3]; 10000 nM): 77.5%
- cell viability ([4]; 1 nM): 102%
- cell viability ([4]; 10 nM): 103%
- cell viability ([4]; 100 nM): 103%
- cell viability ([4]; 1000 nM): 103%
- cell viability ([4]; 10000 nM): 89.2%
- cell viability ([5]; 1 nM): 94.1%
- cell viability ([5]; 10 nM): 97.6%
- cell viability ([5]; 100 nM): 93.7%
- cell viability ([5]; 1000 nM): 96.3%
- cell viability ([5]; 10000 nM): 88.2%
- relative viability EC50 [6]: > 10 µM
- relative viability EC50 [7]: > 10 µM
- relative viability EC50 [8]: > 10 µM
- relative viability EC50 [9]: > 10 µM
- drug sensitivity score [10]: 2.3
- drug sensitivity score [11]: 1.1
- drug sensitivity score [12]: 0.8
- drug sensitivity score [13]: 0
- drug sensitivity score [14]: 0

SMILES: O=c1cc(-c2ccccc2)oc2cc(O)c(O)c(O)c12 [baicalein]
- cell viability ([1]; 1 nM): 96.2%
- cell viability ([1]; 10 nM): 99.7%
- cell viability ([1]; 100 nM): 96.9%
- cell viability ([1]; 1000 nM): 99.2%
- cell viability ([1]; 10000 nM): 77.1%
- cell viability ([2]; 1 nM): 105%
- cell viability ([2]; 10 nM): 101%
- cell viability ([2]; 100 nM): 103%
- cell viability ([2]; 1000 nM): 103%
- cell viability ([2]; 10000 nM): 87.5%
- cell viability ([3]; 1 nM): 92.1%
- cell viability ([3]; 10 nM): 102%
- cell viability ([3]; 100 nM): 90.8%
- cell viability ([3]; 1000 nM): 101%
- cell viability ([3]; 10000 nM): 104%
- cell viability ([4]; 1 nM): 99.9%
- cell viability ([4]; 10 nM): 97.5%
- cell viability ([4]; 100 nM): 101%
- cell viability ([4]; 1000 nM): 95.2%
- cell viability ([4]; 10000 nM): 62.6%
- cell viability ([5]; 1 nM): 91.4%
- cell viability ([5]; 10 nM): 98.3%
- cell viability ([5]; 100 nM): 93.1%
- cell viability ([5]; 1000 nM): 97%
- cell viability ([5]; 10000 nM): 104%
- relative viability EC50 [15]: > 10 µM
- relative viability EC50 [6]: > 10 µM
- relative viability EC50 [7]: > 10 µM
- relative viability EC50 [9]: > 10 µM
- drug sensitivity score [10]: 0.9
- drug sensitivity score [11]: 0
- drug sensitivity score [12]: 0
- drug sensitivity score [13]: 2.6
- drug sensitivity score [14]: 0

SMILES: CCCCCCCCCCCCCCCC(=O)OC[C@H](COP(=O)([O-])OCC[N+](C)(C)C)OC(=O)CCCCCCCCCCCCCCC [colfosceril-palmitate]
- cell viability ([1]; 1 nM): 115%
- cell viability ([1]; 10 nM): 113%
- cell viability ([1]; 100 nM): 101%
- cell viability ([1]; 1000 nM): 95.7%
- cell viability ([1]; 10000 nM): 71.7%
- cell viability ([2]; 1 nM): 100%
- cell viability ([2]; 10 nM): 103%
- cell viability ([2]; 100 nM): 98.1%
- cell viability ([2]; 1000 nM): 99.2%
- cell viability ([2]; 10000 nM): 86.9%
- cell viability ([3]; 1 nM): 97.5%
- cell viability ([3]; 10 nM): 108%
- cell viability ([3]; 100 nM): 93.3%
- cell viability ([3]; 1000 nM): 101%
- cell viability ([3]; 10000 nM): 99.7%
- cell viability ([4]; 1 nM): 102%
- cell viability ([4]; 10 nM): 103%
- cell viability ([4]; 100 nM): 94.8%
- cell viability ([4]; 1000 nM): 101%
- cell viability ([4]; 10000 nM): 95.9%
- cell viability ([5]; 1 nM): 102%
- cell viability ([5]; 10 nM): 97.3%
- cell viability ([5]; 100 nM): 96.7%
- cell viability ([5]; 1000 nM): 95.6%
- cell viability ([5]; 10000 nM): 95.6%
- relative viability EC50 [6]: > 10 µM
- relative viability EC50 [7]: > 10 µM
- relative viability EC50 [8]: > 10 µM
- relative viability EC50 [9]: > 10 µM
- drug sensitivity score [10]: 1.9
- drug sensitivity score [11]: 0.2
- drug sensitivity score [12]: 0
- drug sensitivity score [13]: 0
- drug sensitivity score [14]: 0

SMILES: CN1CCC[C@@H]1Cc1c[nH]c2ccc(CCS(=O)(=O)c3ccccc3)cc12 [eletriptan]
- cell viability ([1]; 1 nM): 96.5%
- cell viability ([1]; 10 nM): 98%
- cell viability ([1]; 100 nM): 104%
- cell viability ([1]; 1000 nM): 105%
- cell viability ([1]; 10000 nM): 96.1%
- cell viability ([2]; 1 nM): 88.5%
- cell viability ([2]; 10 nM): 102%
- cell viability ([2]; 100 nM): 97.8%
- cell viability ([2]; 1000 nM): 95.2%
- cell viability ([2]; 10000 nM): 87.3%
- cell viability ([3]; 1 nM): 103%
- cell viability ([3]; 10 nM): 99.6%
- cell viability ([3]; 100 nM): 96.7%
- cell viability ([3]; 1000 nM): 95.6%
- cell viability ([3]; 10000 nM): 97%
- cell viability ([4]; 1 nM): 98.6%
- cell viability ([4]; 10 nM): 104%
- cell viability ([4]; 100 nM): 94.6%
- cell viability ([4]; 1000 nM): 104%
- cell viability ([4]; 10000 nM): 96.3%
- relative viability EC50 [15]: > 10 µM
- relative viability EC50 [6]: > 10 µM
- relative viability EC50 [7]: > 10 µM
- relative viability EC50 [8]: > 10 µM
- drug sensitivity score [10]: 0
- drug sensitivity score [11]: 0.1
- drug sensitivity score [12]: 0
- drug sensitivity score [13]: 0

SMILES: C#C[C@]1(O)CC[C@H]2[C@@H]3CCc4cc(OC)ccc4[C@H]3CC[C@@]21C [mestranol]
- cell viability ([1]; 1 nM): 96.8%
- cell viability ([1]; 10 nM): 106%
- cell viability ([1]; 100 nM): 102%
- cell viability ([1]; 1000 nM): 100%
- cell viability ([1]; 10000 nM): 82.7%
- cell viability ([2]; 1 nM): 89.6%
- cell viability ([2]; 10 nM): 102%
- cell viability ([2]; 100 nM): 108%
- cell viability ([2]; 1000 nM): 104%
- cell viability ([2]; 10000 nM): 103%
- cell viability ([3]; 1 nM): 113%
- cell viability ([3]; 10 nM): 104%
- cell viability ([3]; 100 nM): 107%
- cell viability ([3]; 1000 nM): 103%
- cell viability ([3]; 10000 nM): 97.5%
- cell viability ([4]; 1 nM): 102%
- cell viability ([4]; 10 nM): 98.6%
- cell viability ([4]; 100 nM): 96.7%
- cell viability ([4]; 1000 nM): 101%
- cell viability ([4]; 10000 nM): 96.1%
- relative viability EC50 [15]: > 10 µM
- relative viability EC50 [6]: > 10 µM
- relative viability EC50 [7]: > 10 µM
- relative viability EC50 [8]: > 10 µM
- drug sensitivity score [10]: 0.4
- drug sensitivity score [11]: 0
- drug sensitivity score [12]: 0
- drug sensitivity score [13]: 0

SMILES: O=C(c1ccccn1)c1cnn2c(-c3ccncc3)ccnc12 [ocinaplon]
- cell viability ([2]; 1 nM): 98.7%
- cell viability ([2]; 10 nM): 93.6%
- cell viability ([2]; 100 nM): 104%
- cell viability ([2]; 1000 nM): 95.7%
- cell viability ([2]; 10000 nM): 107%
- cell viability ([3]; 1 nM): 108%
- cell viability ([3]; 10 nM): 98.7%
- cell viability ([3]; 100 nM): 107%
- cell viability ([3]; 1000 nM): 93.5%
- cell viability ([3]; 10000 nM): 95.1%
- cell viability ([4]; 1 nM): 94%
- cell viability ([4]; 10 nM): 103%
- cell viability ([4]; 100 nM): 99.2%
- cell viability ([4]; 1000 nM): 102%
- cell viability ([4]; 10000 nM): 99.2%
- cell viability ([5]; 1 nM): 104%
- cell viability ([5]; 10 nM): 99.2%
- cell viability ([5]; 100 nM): 100%
- cell viability ([5]; 1000 nM): 102%
- cell viability ([5]; 10000 nM): 102%
- relative viability EC50 [6]: > 10 µM
- relative viability EC50 [7]: > 10 µM
- relative viability EC50 [8]: > 10 µM
- relative viability EC50 [9]: > 10 µM
- drug sensitivity score [11]: 0
- drug sensitivity score [12]: 0
- drug sensitivity score [13]: 0
- drug sensitivity score [14]: 0

SMILES: Cn1c(=O)c2[nH]c(Br)nc2n(C)c1=O [pamabrom]
- cell viability ([1]; 1 nM): 90.3%
- cell viability ([1]; 10 nM): 103%
- cell viability ([1]; 100 nM): 91%
- cell viability ([1]; 1000 nM): 109%
- cell viability ([1]; 10000 nM): 101%
- cell viability ([2]; 1 nM): 105%
- cell viability ([2]; 10 nM): 99.3%
- cell viability ([2]; 100 nM): 100%
- cell viability ([2]; 1000 nM): 103%
- cell viability ([2]; 10000 nM): 105%
- cell viability ([3]; 1 nM): 100%
- cell viability ([3]; 10 nM): 94.8%
- cell viability ([3]; 100 nM): 92.9%
- cell viability ([3]; 1000 nM): 89.7%
- cell viability ([3]; 10000 nM): 112%
- cell viability ([4]; 1 nM): 98.6%
- cell viability ([4]; 10 nM): 99.8%
- cell viability ([4]; 100 nM): 97.9%
- cell viability ([4]; 1000 nM): 102%
- cell viability ([4]; 10000 nM): 96.4%
- relative viability EC50 [15]: > 10 µM
- relative viability EC50 [6]: > 10 µM
- relative viability EC50 [7]: > 10 µM
- relative viability EC50 [8]: > 10 µM
- drug sensitivity score [10]: 0
- drug sensitivity score [11]: 0
- drug sensitivity score [12]: 0
- drug sensitivity score [13]: 0

SMILES: C[C@]1(c2nc3c(C(N)=O)cccc3[nH]2)CCCN1 [veliparib]
- cell viability ([2]; 1 nM): 105%
- cell viability ([2]; 10 nM): 100%
- cell viability ([2]; 100 nM): 100%
- cell viability ([2]; 1000 nM): 111%
- cell viability ([2]; 10000 nM): 92.1%
- cell viability ([3]; 1 nM): 105%
- cell viability ([3]; 10 nM): 107%
- cell viability ([3]; 100 nM): 106%
- cell viability ([3]; 1000 nM): 96.1%
- cell viability ([3]; 10000 nM): 101%
- cell viability ([4]; 1 nM): 96.7%
- cell viability ([4]; 10 nM): 104%
- cell viability ([4]; 100 nM): 96.8%
- cell viability ([4]; 1000 nM): 106%
- cell viability ([4]; 10000 nM): 96.6%
- relative viability EC50 [6]: > 10 µM
- relative viability EC50 [7]: > 10 µM
- relative viability EC50 [8]: > 10 µM
- drug sensitivity score [11]: 0
- drug sensitivity score [12]: 0
- drug sensitivity score [13]: 0
